Measurements as given in patent US10238756B2, “Lipid nanoparticles and uses thereof” (Tongli Biomedical Co., Ltd., priority 2015, dated 2019).

Tests used:
[1] = Storage stability of ICG fluorescence in the dark at 4° C.; format: physicochemical; settings: for % ICG fluorescence (8 months): stored in the dark at 4° C. for 8 months, % of initial fluorescence intensity, mean ± SD
Experimental: (§1) Fluorescence. Fluorescence measurements were performed on a Victor3 V 1420-040 Multilabel Plate Reader (Perkin-Elmer, Waltham, Mass.) with a tungsten-halogen continuous wave lamp (75 W, spectral range of 320-800 nm) and excitation (769±41 nm) and emission (832±37 nm) filters (Semrock, Rochester, N.Y.) using 100μL of sample in flat bottom, untreated 96-well plates (Grenier Bio-one, Monroe, N.C.).
(§2) Light Exposure and Storage Stability. […] For storage stability (FIG. 12), samples were placed in the dark at 4° C. for up to 313 days. […] The time-dependent decay of ICG fluorescence was analyzed on the basis of an exponential decay model with GraphPad Prism version 6.0 (GraphPad Software, San Diego, Calif.). The data were expressed as t½ (half-life) and k (rate constant).

[2] = Light exposure stability of ICG fluorescence; format: physicochemical
Experimental: as §1, §2

[3] = tested on: lymph nodes and vessels in mice; experiment: In vivo NIR lymphatic imaging in mice after subcutaneous foot injection; parameters: species or system mouse; settings: for max NIRF intensity: mean ± SEM (N = 3-4)
Experimental: (§3) In Vivo NIR Lymphatic Imaging in Mice. Mice were kept under pathogen-free conditions, exposed to a 12 h light-dark cycle, and received food ad libitum prior to imaging. All procedures were approved by the University of Washington Institutional Animal Care and Use Committee. Mice were anesthetized with 1.5% isoflurane, shaved to remove fur, and placed in a supine position on a 37° C. heat pad underneath an IVIS Lumina II NIR CCD camera (Perkin Elmer, Waltham, Mass.). Precontrast images were taken to confirm the absence of autofluorescence. Forty microliters of ICG-LNPs or free ICG was injected subcutaneously into the top of both rear feet. Immediately following injections, both feet were placed under gentle even pressure. Images were acquired for up to 120 min prior to euthanasia by cervical dislocation under anesthesia, upon which the skin was surgically opened to perform lymph node imaging.

[4] = tested on: popliteal and sciatic lymph nodes; experiment: In vivo pharmacokinetics of fluorescence intensity in draining lymph nodes detected through skin; settings: subcutaneous, mouse foot, N = 3
Experimental: as §3

With `CC1(C)C(/C=C/C=C/C=C/C=C2\N(CCCCS(=O)(=O)O)c3ccc4ccccc4c3C2(C)C)=[N+](CCCCS(=O)(=O)[O-])c2ccc3ccccc3c21` [Free ICG, sodium 2-[7-[3,3-dimethyl-1-(4-sulfonatobutyl)benz[e]indolin-2-ylidene]hepta-1,3,5-trien-1-yl]-3,3-dimethyl-1-(4-sulfonatobutyl)benz] the half-life ([1]; buffer, stored in the dark at 4° C., exponential decay model, (95% CI)) was 28.6 h, the “% ICG fluorescence (8 months)” value [1] was 0.3 +/− 0.2% and the “% ICG fluorescence (8 months)” value ([1]; listed as free ICG) was 0.3±0.2%. For the same molecule, the “k (rate constant)” value ([1]; stored in the dark at 4° C., exponential decay model) was 0.582 day⁻¹, the “fluorescence intensity, % of the initial value” ([2]; after 6 hours of light exposure, 2.0 μM ICG, overhead fluorescent light) was 2.5±0.5% and the half-life at 2 μM ([2]; aqueous solution (free ICG in solution), light exposure, exponential decay model) was 2.16 ± 0.3 min. The k ([2]; light exposure, exponential decay model) was 19.2 ± 2.7 h⁻¹, the “No. of nodes detected” value ([3]; Axillary) was 2 and the “max NIRF intensity” value ([3]; Axillary LN) was 0.8 ± 0.1 10^−5 a.u. The “No. of nodes detected” value ([3]; Gastric) was 1-2, the “max NIRF intensity” value ([3]; Gastric LN) was 2.5 ± 1.3 10^−5 a.u and the “No. of nodes detected” value ([3]; Medial iliac) was 1-2. The “max NIRF intensity” value ([3]; Medial iliac LN) was 4.1 ± 1.6 10^−5 a.u, the “max NIRF intensity” value ([3]; Pop afferent vessel) was 0.6 ± 0.2 10^−5 a.u and the “max NIRF intensity” value ([3]; Pop efferent vessel) was 0.6 ± 0.1 10^−5 a.u. The “No. of nodes detected” value ([3]; Popliteal (Pop)) was 1, the “max NIRF intensity” value ([3]; Popliteal (Pop) LN) was 4.7 ± 2.2 10^−5 a.u and the “No. of nodes detected” value ([3]; Sciatic) was 0. For the same molecule, the “max NIRF intensity” value ([3]; Sciatic LN) was 0.6 ± 0.1 10^−5 a.u, the “ICG intensity mean of the popliteal lymph node” value ([3]; image collected below the skin, six minutes, 0.5 nmol of ICG subcutaneously in foot) was 37.0 and the AUC0-2 hr ([4]; fluorescence intensity in 1st draining lymph node (popliteal LN) through skin) was 61.65 ± 34.83 a.u.*min. For the same molecule, the Intensitymax ([4]; popliteal LN through skin) was 0.66 ± 0.42 a.u and the k ([4]; popliteal LN through skin) was 0.19 ± 0.17 h⁻¹.
